Tests used:
[1] = both, Sprague-Dawley (SD), rat, in vivo, 14 days
Experimental: The treatment group each includes 16 rats, and the vehicle control group includes 10 rats, with a half of male rats and a half of female rats. The drug at corresponding concentrations and the vehicle were administered to the rats through oral gavage daily for 14 consecutive days. The rats were allowed to recover for 7 days. During the administration period, general conditions, body weight and food intake were detected for each group. After the administration period and the recovery period, hematology test, serum biochemistry test and gross anatomical examination were performed for each group.

NE enzyme = settings: cited from earlier work
[2] = system: LPS-induced acute lung injury; settings: cited from earlier work

SMILES: Cn1c(=O)oc2ccc(-c3ccc(C[C@@H](C#N)NC(=O)[C@@H]4CNCCCO4)c(F)c3)cc21 [Compound A, (S)—N—((S)-1-cyano-2-(2-fluoro-4-(3-methyl-2-oxo-2,3-dihydrobenzo[d]oxazol-5-yl)phenyl)ethyl)-1,4-oxazepane-2-carboxamide]
- Toxicity compared at the same dose [1]: less toxic than INS1007
- Inhibition of NE enzyme activity in rat bone marrow (NE enzyme): significantly inhibit NE enzyme activity in rat bone marrow
- Effect on LPS-induced acute lung injury in mice [2]: mitigate LPS-induced acute lung injury in mice

— patent publication US20260263480A1, “PHARMACEUTICAL COMPOSITION CONTAINING A DIPEPTIDYL PEPTIDASE SMALL MOLECULE INHIBITOR” (HAISCO PHARMACEUTICALS PTE. LTD., priority 2023, published 2026)
